Measured values: ChEMBL document CHEMBL4376896, “Synthesis of Novel Potent Archazolids: Pharmacology of an Emerging Class of Anticancer Drugs” (J Med Chem, 2020)
Active and inactive are the calls of the source. No cut-off for these calls is given here.

Key:
[1] = Stability in CD1 mouse liver microsomes assessed as rapid demethylation at 1 uM; assay type: ADME, Microsome
[2] = target: Chymotrypsin (Homo sapiens) (UniProt Q99895+P17538+P40313+Q6GPI1); experiment: Inhibition of chymotrypsin (unknown origin) assessed as reduction in pNA release using chromogenic Suc-Ala-Ala-Pro-Phe-pNA substrate measured over 12.5 mins by spectrophotometry; assay type: protein assay
[3] = Stability in CD1 mouse liver microsomes assessed as rapid oxidation at 1 uM; assay type: ADME, Microsome
[4] = target: Procathepsin L (Homo sapiens) (UniProt P07711); experiment: Inhibition of cathepsin L (unknown origin) assessed as reduction in pNA release using chromogenic Z-Phe-Arg-pNA substrate measured over 1 hr by spectrophotometry
Procathepsin L (Homo sapiens), sequence (P07711 114-333 limits assumed): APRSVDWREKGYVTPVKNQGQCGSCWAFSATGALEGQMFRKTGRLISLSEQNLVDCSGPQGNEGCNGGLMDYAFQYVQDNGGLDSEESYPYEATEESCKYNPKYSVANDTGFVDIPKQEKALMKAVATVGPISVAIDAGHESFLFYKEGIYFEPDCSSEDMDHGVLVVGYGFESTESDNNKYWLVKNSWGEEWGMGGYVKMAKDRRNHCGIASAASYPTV

[5] = target: Cathepsin B (Homo sapiens) (UniProt P07858); experiment: Inhibition of cathepsin B (unknown origin) assessed as reduction in pNA release using chromogenic Z-Arg-Arg-pNA substrate measured over 1 hr by spectrophotometry
[6] = Stability in human liver microsomes assessed as rapid oxidation at 1 uM; assay type: ADME, Microsome
[7] = target: T1, Neutrophil elastase (Homo sapiens, UniProt P08246); experiment: Inhibition of human leukocyte elastase assessed as reduction in pNA release using chromogenic MeO-Suc-Ala-Ala-Pro-Val-pNA substrate measured over 10 mins by spectrophotometry
T1 sequence (P08246 whole entry): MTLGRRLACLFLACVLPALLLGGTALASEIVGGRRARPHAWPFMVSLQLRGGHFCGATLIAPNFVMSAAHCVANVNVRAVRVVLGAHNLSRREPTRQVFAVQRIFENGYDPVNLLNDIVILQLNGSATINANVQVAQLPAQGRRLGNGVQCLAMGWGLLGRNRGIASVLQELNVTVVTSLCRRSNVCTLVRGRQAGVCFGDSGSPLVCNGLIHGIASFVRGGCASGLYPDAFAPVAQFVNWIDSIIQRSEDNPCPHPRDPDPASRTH

[8] = Intrinsic clearance in CD1 mouse liver microsomes at 1 uM; assay type: ADME, Microsome; conditions: read-out: CLH
[9] = target: Trypsin (Homo sapiens) (UniProt P07477+P07478+P35030); experiment: Inhibition of trypsin (unknown origin) assessed as reduction in pNA release using chromogenic Suc-Ala-Ala-Pro-Arg-pNA substrate measured over 10 mins by spectrophotometry; assay type: protein assay
[10] = target: T2, Adenosine receptor A3 (Homo sapiens, UniProt P0DMS8); experiment: Displacement of [3H]PSB-11 from human A3 adenosine receptor expressed in CHO cell membranes incubated for 60 mins by liquid scintillation counting method
T2 sequence (P0DMS8 whole entry): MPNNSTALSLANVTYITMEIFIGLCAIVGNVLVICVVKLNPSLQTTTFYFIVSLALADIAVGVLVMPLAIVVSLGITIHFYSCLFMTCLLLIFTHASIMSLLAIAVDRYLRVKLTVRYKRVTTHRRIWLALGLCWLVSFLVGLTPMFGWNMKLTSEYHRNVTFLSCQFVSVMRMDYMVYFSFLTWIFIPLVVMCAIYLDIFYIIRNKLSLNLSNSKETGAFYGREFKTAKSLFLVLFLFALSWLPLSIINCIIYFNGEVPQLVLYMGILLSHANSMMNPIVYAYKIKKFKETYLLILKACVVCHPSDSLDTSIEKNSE

[11] = Inhibition of Manduca sexta V-type proton ATPase assessed as reduction in inorganic phosphate production pre-inucubated for 5 mins before Tris-ATP addition and measured after 2 mins
[12] = cells; conditions: Homo sapiens, 1321-N1, 72 h
Description: Growth inhibition of human 1321N1 cells incubated for 72 hrs by MTT assay

[13] = target: T3, P2X purinoceptor 3 (Homo sapiens, UniProt P56373); experiment: Inhibition of human P2X3 assessed as reduction in agonist-induced intracellular Ca2+ concentration pre-incubated for 30 mins before agonist addition by calcium 5 dye based fluorescence assay; assay type: cell-based
T3 sequence (P56373 whole entry): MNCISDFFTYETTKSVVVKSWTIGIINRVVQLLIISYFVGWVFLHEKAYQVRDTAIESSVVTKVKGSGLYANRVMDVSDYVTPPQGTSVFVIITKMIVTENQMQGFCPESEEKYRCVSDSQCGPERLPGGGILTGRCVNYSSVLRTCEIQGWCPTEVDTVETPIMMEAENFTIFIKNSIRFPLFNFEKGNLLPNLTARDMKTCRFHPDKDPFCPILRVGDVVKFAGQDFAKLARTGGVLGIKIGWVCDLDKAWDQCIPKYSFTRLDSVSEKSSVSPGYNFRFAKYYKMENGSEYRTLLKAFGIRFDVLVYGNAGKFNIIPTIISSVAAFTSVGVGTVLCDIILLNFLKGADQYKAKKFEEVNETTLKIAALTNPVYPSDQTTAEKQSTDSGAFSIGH

[14] = Stability in human liver microsomes assessed as rapid demethylation at 1 uM; assay type: ADME, Microsome
[15] = Stability in CD1 mouse liver microsomes assessed as rapid hydroxylation at 1 uM; assay type: ADME, Microsome
[16] = Stability in human liver microsomes assessed as rapid hydroxylation at 1 uM; assay type: ADME, Microsome
[17] = organism: Homo sapiens; experiment: Inhibition of Calcium channel (unknown origin) at 10 uM relative to control
[18] = target: P2Y purinoceptor 1 (Homo sapiens) (UniProt P47900); experiment: Inhibition of human P2Y1 assessed as reduction in agonist-induced intracellular Ca2+ concentration at 10 uM pre-incubated for 30 mins before agonist addition by FLUO-4 AM dye based fluorescence assay; assay type: functional, cell-based
P2Y purinoceptor 1 (Homo sapiens), sequence (P47900 whole entry): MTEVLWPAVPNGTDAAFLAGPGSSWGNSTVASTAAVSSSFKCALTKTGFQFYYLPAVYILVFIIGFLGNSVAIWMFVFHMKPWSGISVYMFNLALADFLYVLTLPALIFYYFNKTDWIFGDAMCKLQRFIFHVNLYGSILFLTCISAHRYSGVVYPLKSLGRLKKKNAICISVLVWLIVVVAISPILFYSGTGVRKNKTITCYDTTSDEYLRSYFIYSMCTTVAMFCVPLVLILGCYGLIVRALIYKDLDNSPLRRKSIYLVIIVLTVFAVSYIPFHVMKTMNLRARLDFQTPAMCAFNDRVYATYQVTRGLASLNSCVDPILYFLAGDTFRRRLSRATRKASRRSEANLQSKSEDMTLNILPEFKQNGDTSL

[19] = target: Uracil nucleotide/cysteinyl leukotriene receptor (Homo sapiens) (UniProt Q13304); experiment: Inhibition of human GPR17 at 10 uM by Oregon-green BAPTA-1/AM dye based calcium mobilization assay; assay type: functional
Uracil nucleotide/cysteinyl leukotriene receptor (Homo sapiens), sequence (Q13304 whole entry): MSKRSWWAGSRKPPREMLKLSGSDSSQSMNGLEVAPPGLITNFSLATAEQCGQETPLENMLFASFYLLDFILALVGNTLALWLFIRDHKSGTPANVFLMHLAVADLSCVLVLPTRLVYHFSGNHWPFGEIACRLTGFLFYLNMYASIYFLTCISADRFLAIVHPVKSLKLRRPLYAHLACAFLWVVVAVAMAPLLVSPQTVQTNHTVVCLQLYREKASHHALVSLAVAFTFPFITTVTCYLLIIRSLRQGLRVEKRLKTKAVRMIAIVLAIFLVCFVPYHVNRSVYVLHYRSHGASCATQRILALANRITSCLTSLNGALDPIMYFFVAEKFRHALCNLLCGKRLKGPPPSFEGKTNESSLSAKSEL

[20] = target: P2X purinoceptor 4 (Homo sapiens) (UniProt Q99571); experiment: Inhibition of human P2X4 assessed as reduction in agonist-induced intracellular Ca2+ concentration at 10 uM pre-incubated for 30 mins before agonist addition by FLUO-4 AM dye based fluorescence assay; assay type: cell-based
P2X purinoceptor 4 (Homo sapiens), sequence (Q99571 whole entry): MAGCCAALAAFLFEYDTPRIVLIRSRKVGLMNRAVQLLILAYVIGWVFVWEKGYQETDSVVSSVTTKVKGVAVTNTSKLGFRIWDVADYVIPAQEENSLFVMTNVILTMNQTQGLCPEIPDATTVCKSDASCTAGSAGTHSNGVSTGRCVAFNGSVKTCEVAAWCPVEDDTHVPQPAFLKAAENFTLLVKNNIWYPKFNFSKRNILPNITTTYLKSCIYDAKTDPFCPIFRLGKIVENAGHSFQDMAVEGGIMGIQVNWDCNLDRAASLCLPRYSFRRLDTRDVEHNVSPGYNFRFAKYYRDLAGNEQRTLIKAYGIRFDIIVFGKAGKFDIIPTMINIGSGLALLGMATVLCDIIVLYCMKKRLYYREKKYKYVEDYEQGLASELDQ

[21] = target: P2Y purinoceptor 11 (Homo sapiens) (UniProt Q96G91); experiment: Inhibition of human P2Y11 assessed as reduction in agonist-induced intracellular Ca2+ concentration at 10 uM pre-incubated for 30 mins before agonist addition by FLUO-4 AM dye based fluorescence assay; assay type: functional, cell-based
[22] = target: Adenosine receptor A2b (Homo sapiens) (UniProt P29275); experiment: Inhibition of human A2B adenosine receptor incubated for 60 mins by liquid scintillation counting method
Adenosine receptor A2b (Homo sapiens), sequence (P29275 whole entry): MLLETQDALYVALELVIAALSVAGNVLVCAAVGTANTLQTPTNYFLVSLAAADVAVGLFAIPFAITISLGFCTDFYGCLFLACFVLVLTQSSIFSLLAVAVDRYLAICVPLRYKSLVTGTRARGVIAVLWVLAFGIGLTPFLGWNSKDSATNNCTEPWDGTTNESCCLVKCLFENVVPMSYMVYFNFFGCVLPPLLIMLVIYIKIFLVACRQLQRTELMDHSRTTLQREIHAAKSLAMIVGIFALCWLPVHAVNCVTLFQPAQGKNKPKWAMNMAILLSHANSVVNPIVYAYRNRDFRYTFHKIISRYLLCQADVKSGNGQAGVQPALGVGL

[23] = target: Adenosine receptor A1 (Homo sapiens) (UniProt P30542); experiment: Inhibition of human A1 adenosine receptor incubated for 60 mins by liquid scintillation counting method
Adenosine receptor A1 (Homo sapiens), sequence (P30542 whole entry): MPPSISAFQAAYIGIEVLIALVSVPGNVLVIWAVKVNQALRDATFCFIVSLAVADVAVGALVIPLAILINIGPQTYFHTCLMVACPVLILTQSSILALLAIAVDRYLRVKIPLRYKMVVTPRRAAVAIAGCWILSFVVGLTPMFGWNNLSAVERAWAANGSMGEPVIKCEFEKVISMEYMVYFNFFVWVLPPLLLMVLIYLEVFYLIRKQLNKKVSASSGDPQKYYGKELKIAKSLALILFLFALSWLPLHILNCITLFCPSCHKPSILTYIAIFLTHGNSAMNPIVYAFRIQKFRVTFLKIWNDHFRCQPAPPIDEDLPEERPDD

[24] = target: P2X purinoceptor 2 (Homo sapiens) (UniProt Q9UBL9); experiment: Inhibition of human P2X2 assessed as reduction in agonist-induced intracellular Ca2+ concentration at 10 uM pre-incubated for 30 mins before agonist addition by FLUO-4 AM dye based fluorescence assay; assay type: cell-based
P2X purinoceptor 2 (Homo sapiens), sequence (Q9UBL9 whole entry): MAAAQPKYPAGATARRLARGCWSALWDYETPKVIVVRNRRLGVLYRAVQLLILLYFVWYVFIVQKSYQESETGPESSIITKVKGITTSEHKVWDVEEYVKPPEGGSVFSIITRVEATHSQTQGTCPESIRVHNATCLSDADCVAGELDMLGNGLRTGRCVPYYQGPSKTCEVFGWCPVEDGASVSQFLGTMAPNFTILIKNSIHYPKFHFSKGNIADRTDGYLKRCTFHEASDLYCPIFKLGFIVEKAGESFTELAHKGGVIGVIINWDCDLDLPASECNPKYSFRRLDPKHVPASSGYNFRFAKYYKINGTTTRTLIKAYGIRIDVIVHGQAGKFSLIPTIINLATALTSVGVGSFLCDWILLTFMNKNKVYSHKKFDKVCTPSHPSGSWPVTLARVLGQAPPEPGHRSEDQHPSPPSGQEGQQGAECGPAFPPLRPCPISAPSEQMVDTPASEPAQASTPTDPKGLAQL

[25] = target: P2X purinoceptor 3 (Homo sapiens) (UniProt P56373); experiment: Non-competitive inhibition of human P2X3 expressed in human 1321N1 cells assessed as reduction in maximal effect of ATP-induced intracellular Ca2+ concentration pre-incubated for 30 mins before agonist addition by calcium 5 dye based fluorescence assay; assay type: cell-based
[26] = target: P2Y purinoceptor 14 (Homo sapiens) (UniProt Q15391); experiment: Inhibition of human P2Y14 assessed as reduction in agonist-induced intracellular Ca2+ concentration at 10 uM pre-incubated for 30 mins before agonist addition by FLUO-4 AM dye based fluorescence assay; assay type: functional, cell-based
P2Y purinoceptor 14 (Homo sapiens), sequence (Q15391 whole entry): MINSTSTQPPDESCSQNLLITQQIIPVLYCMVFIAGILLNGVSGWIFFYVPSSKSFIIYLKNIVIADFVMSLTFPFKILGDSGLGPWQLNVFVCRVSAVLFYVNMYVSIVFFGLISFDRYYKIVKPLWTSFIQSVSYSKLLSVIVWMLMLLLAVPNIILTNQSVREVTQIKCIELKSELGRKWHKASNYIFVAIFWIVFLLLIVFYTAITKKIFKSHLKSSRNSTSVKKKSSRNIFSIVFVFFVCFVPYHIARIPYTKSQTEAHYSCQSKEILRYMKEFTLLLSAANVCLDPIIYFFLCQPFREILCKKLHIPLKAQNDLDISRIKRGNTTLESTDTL

[27] = target: P2X purinoceptor 7 (Homo sapiens) (UniProt Q99572); experiment: Inhibition of human P2X7 assessed as reduction in agonist-induced intracellular Ca2+ concentration at 10 uM pre-incubated for 30 mins before agonist addition by FLUO-4 AM dye based fluorescence assay; assay type: cell-based
[28] = target: P2X purinoceptor 1 (Homo sapiens) (UniProt P51575); experiment: Inhibition of human P2X1 assessed as reduction in agonist-induced intracellular Ca2+ concentration at 10 uM pre-incubated for 30 mins before agonist addition by calcium 5 dye based fluorescence assay; assay type: cell-based
[29] = target: P2Y purinoceptor 6 (Homo sapiens) (UniProt Q15077); experiment: Inhibition of human P2Y6 assessed as reduction in agonist-induced intracellular Ca2+ concentration at 10 uM pre-incubated for 30 mins before agonist addition by FLUO-4 AM dye based fluorescence assay; assay type: functional, cell-based
[30] = target: P2Y purinoceptor 2 (Homo sapiens) (UniProt P41231); experiment: Inhibition of human P2Y2 assessed as reduction in agonist-induced intracellular Ca2+ concentration at 10 uM pre-incubated for 30 mins before agonist addition by FLUO-4 AM dye based fluorescence assay; assay type: functional, cell-based
P2Y purinoceptor 2 (Homo sapiens), sequence (P41231 whole entry): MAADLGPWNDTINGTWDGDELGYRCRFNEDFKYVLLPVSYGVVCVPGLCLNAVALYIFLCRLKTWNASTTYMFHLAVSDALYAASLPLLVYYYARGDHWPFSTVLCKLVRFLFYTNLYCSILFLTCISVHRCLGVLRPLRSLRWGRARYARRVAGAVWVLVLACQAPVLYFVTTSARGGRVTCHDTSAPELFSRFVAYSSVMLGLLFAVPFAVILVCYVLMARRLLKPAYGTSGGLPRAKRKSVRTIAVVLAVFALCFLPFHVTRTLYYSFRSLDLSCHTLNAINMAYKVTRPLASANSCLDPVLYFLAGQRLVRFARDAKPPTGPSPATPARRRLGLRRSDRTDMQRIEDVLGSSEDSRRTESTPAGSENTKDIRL

[31] = target: Peroxisome proliferator-activated receptor gamma (Homo sapiens) (UniProt P37231); experiment: Inhibition of human PPARgamma at 10 uM relative to control
Peroxisome proliferator-activated receptor gamma (Homo sapiens), sequence (P37231 whole entry): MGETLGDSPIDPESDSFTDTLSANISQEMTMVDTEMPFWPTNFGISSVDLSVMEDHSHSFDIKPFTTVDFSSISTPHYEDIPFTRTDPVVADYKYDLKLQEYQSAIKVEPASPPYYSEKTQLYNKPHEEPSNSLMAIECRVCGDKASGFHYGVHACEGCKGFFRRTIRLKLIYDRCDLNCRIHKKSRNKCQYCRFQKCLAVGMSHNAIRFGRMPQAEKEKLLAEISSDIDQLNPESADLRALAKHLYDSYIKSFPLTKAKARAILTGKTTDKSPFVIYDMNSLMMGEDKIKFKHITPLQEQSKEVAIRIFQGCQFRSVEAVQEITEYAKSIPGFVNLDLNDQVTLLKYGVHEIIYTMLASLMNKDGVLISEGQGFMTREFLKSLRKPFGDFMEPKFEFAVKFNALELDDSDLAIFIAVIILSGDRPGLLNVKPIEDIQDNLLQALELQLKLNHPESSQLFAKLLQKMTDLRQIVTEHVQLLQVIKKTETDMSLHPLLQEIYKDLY

[32] = target: Adenosine receptor A2a (Homo sapiens) (UniProt P29274); experiment: Inhibition of human A2A adenosine receptor incubated for 60 mins by liquid scintillation counting method
Adenosine receptor A2a (Homo sapiens), sequence (P29274 whole entry): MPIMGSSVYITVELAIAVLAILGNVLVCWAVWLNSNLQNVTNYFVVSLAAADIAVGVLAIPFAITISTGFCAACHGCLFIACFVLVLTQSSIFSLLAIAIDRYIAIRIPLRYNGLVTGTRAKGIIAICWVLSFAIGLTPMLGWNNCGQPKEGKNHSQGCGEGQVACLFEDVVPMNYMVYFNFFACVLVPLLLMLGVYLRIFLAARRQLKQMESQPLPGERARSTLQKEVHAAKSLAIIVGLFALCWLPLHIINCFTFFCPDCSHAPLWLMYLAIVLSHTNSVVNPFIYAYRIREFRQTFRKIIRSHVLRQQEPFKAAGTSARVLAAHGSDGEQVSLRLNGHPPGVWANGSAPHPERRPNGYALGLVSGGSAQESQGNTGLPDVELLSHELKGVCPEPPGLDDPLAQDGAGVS

[33] = target: P2Y purinoceptor 4 (Homo sapiens) (UniProt P51582); experiment: Inhibition of human P2Y4 assessed as reduction in agonist-induced intracellular Ca2+ concentration at 10 uM pre-incubated for 30 mins before agonist addition by FLUO-4 AM dye based fluorescence assay; assay type: functional, cell-based
P2Y purinoceptor 4 (Homo sapiens), sequence (P51582 whole entry): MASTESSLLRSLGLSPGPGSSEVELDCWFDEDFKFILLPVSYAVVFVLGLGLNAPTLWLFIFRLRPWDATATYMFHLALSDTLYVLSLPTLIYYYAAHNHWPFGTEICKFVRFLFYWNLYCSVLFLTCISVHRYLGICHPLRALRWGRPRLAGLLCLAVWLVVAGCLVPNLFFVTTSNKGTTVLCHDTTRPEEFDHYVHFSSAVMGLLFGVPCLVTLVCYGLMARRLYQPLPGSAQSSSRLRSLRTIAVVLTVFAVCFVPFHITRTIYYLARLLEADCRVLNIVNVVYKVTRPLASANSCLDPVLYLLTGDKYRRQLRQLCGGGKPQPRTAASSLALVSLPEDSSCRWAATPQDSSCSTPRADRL

[34] = target: P2Y purinoceptor 12 (Homo sapiens) (UniProt Q9H244); experiment: Inhibition of human P2Y12 assessed as reduction in agonist-induced intracellular Ca2+ concentration at 10 uM pre-incubated for 30 mins before agonist addition by FLUO-4 AM dye based fluorescence assay; assay type: functional, cell-based
P2Y purinoceptor 12 (Homo sapiens), sequence (Q9H244 whole entry): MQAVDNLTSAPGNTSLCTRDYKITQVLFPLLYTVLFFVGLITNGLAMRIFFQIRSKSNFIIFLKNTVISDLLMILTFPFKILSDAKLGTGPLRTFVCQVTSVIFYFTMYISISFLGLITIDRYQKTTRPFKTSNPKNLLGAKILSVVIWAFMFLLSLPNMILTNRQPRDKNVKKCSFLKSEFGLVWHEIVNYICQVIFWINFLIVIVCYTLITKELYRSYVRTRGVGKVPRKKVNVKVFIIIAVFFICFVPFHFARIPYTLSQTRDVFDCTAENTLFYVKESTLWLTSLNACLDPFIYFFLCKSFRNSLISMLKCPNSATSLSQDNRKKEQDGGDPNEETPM

CNC(=O)O[C@@H](CC(C)C)c1nc([C@H]2OC(=O)C/C=C/C(C)=C/[C@@H](O)[C@@H](C)\C=C(C)/C=C(C)\C=C\[C@@H](O)[C@H](C)[C@H](OC)/C(C)=C/C=C/[C@@H]2C)cs1 [ARCHAZOLID F]
Drug metabolism [1]: Metabolite_Detected
inhibition [2]: inactive
Drug metabolism [3]: Metabolite_Detected
inhibition [4]: inactive
inhibition [5]: inactive
Drug metabolism [6]: Metabolite_Detected
IC50 ([7]; read-out: IC50): 830 nM
microsomal CLint at 1 µM [8]: 271 µL/min/mg
inhibition [9]: inactive
Ki [10]: 859 nM
IC50 [11]: 6.26 nM
IC50 [12]: 4.51 nM
IC50 [13]: 438 nM
Drug metabolism [14]: Metabolite_Detected
Drug metabolism [15]: Metabolite_Detected
Drug metabolism [16]: Metabolite_Detected

CNC(=O)O[C@@H](CC(C)C)c1nc([C@H]2OC(=O)C/C=C/C(C)=C/[C@@H](O)[C@@H](C)\C=C(C)/C=C(C)\C=C\[C@@H](O)[C@H](C)[C@H](O)/C(C)=C/C=C/[C@@H]2C)cs1
IC50 ([7]; read-out: IC50): 1540 nM
Ki [10]: 1380 nM
IC50 [11]: 213 nM
IC50 [12]: 3050 nM
IC50 [13]: > 10000 nM

CNC(=O)O[C@@H](CC(C)C)c1nc([C@@H](O)[C@@H](C)/C=C/C=C(\C)[C@@H](OC)[C@@H](C)[C@H](O)/C=C/C(C)=C\C(C)=C/[C@H](C)[C@H](O)/C=C(C)/C=C/CC(=O)OC)cs1
IC50 ([7]; read-out: IC50): 2340 nM
Ki [10]: 1610 nM
IC50 [11]: 352 nM
IC50 [12]: 296 nM
IC50 [13]: > 10000 nM

CNC(=O)O[C@@H](CC(C)C)c1nc([C@H]2OC(=O)[C@H](C)/C=C/C(C)=C/[C@@H](O)[C@@H](C)\C=C(C)/C=C(C)\C=C\[C@@H](O)[C@H](C)[C@H](OC)/C(C)=C/C=C/[C@@H]2C)cs1
IC50 ([7]; read-out: IC50): 595 nM
Ki [10]: ≥ 10000 nM
IC50 [11]: 7.94 nM
IC50 [12]: 2.58 nM
IC50 [13]: > 2000 nM

CO[C@@H]1/C(C)=C/C=C/CCOC(=O)C/C=C/C(C)=C/[C@@H](O)[C@@H](C)\C=C(C)/C=C(C)\C=C\[C@@H](O)[C@@H]1C
IC50 ([7]; read-out: IC50): 5850 nM
Ki [10]: 609 nM

CNC(=O)O[C@@H](CC(C)C)c1nc([C@H]2OC(=O)/C(C)=C/C/C(C)=C/[C@@H](O)[C@@H](C)\C=C(C)/C=C(C)\C=C\[C@@H](O)[C@H](C)[C@H](OC)/C(C)=C/C=C/[C@@H]2C)cs1 [ARCHAZOLID A]
inhibition [2]: inactive
inhibition [17]: 52%
inhibition [4]: inactive
inhibition [18]: inactive
inhibition [19]: inactive
inhibition [20]: inactive
inhibition [5]: inactive
IC50 ([7]; read-out: IC50): 352 nM
inhibition [21]: inactive
inhibition [22]: inactive
inhibition [23]: inactive
inhibition [24]: inactive
inhibition [25]: Dose-dependent effect
inhibition [9]: inactive
inhibition [26]: inactive
Ki [10]: 967 nM
IC50 [11]: 6.33 nM
inhibition [27]: inactive
IC50 [12]: 0.253 nM
inhibition [28]: inactive
IC50 [13]: 86.1 nM
inhibition [29]: inactive
inhibition [30]: inactive
inhibition [31]: 82%
inhibition [32]: inactive
inhibition [33]: inactive
inhibition [34]: inactive

CNC(=O)O[C@@H](CC(C)C)c1nc([C@H]2OC(=O)[C@@H](C)/C=C/C(C)=C/[C@@H](O)[C@@H](C)\C=C(C)/C=C(C)\C=C\[C@@H](O)[C@H](C)[C@H](OC)/C(C)=C/C=C/[C@@H]2C)cs1
IC50 ([7]; read-out: IC50): 721 nM
Ki [10]: 1140 nM
IC50 [11]: 5.52 nM
IC50 [12]: 2.16 nM
IC50 [13]: 648 nM

CO/C1=C\C(C)=C\[C@@H](C)[C@@H](O)[C@@H](C)C/C(C)=C/C=C/[C@H](OC)[C@@H]([C@@H](C)[C@@H](O)[C@H](C)[C@@]2(O)C[C@@H](O)[C@H](C)[C@@H](C(C)C)O2)OC1=O [BAFILOMYCIN A1]
IC50 [7]: Not Active
Ki [10]: 1080 nM
IC50 [11]: 10 nM
IC50 [12]: 3.06 nM
IC50 [13]: 755 nM
